Test [1] relates to patients with NASH. As to conditions: cited from earlier work.
Test [2] concerns patients with NASH. As to conditions: cited from earlier work. The source holds these as a separate data set.
Test [3] has as its system patients with NASH. Nature of the test: Meta-analysis of 17 NASH clinical trials: change from baseline in LFTs and biomarkers by study arm, composite outcome. Type of test: in vivo, human. As to conditions: 17 NASH clinical trials. The method, then: Meta-regressions of NASH clinical trials were performed to examine associations between biomarker and histological changes within treatment groups, and to additionally examine associations between treatment effects on biomarkers and on liver histology. Trials that met the following criteria were included: • Randomized controlled clinical trial • Paired biopsies performed at baseline and follow-up, scored using the NASH CRN system.
• Published results at baseline, follow-up, or changes from baseline for any the following liver injury markers or biomarkers: alanine aminotransferase (ALT), aspartate aminotransferase (AST), alkaline phosphatase, hemoglobin A1c (HbA1c), gamma-glutamyltransferase (GGT), insulin, cytokeratin-18 (CK-18), or Enhanced Liver Fibrosis (ELF) score. Variables selected were based on variables whose change was commonly reported in multiple studies. • Changes in histological scores for ballooning, inflammation, steatosis, and fibrosis, or the pre-determined endpoints of NASH resolution without worsening fibrosis or improvement in fibrosis with no worsening of NASH.
All results from a search of PubMed for the keywords (“nonalcoholic steatohepatitis” or “non-alcoholic steatohepatitis”) and (“clinical trial” or “randomized”) and filtered for “Clinical Trial” were reviewed. EudraCT and ClinicalTrials.gov were searched for the keyword “nonalcoholic steatohepatitis” with results further filtered for phase 2 or 3, interventional, terminated or completed trials. These three sources returned 265 (PubMed), 153 (ClinicalTrials.gov), and 56 (EudraCT) results, which were each individually reviewed for inclusion in the analysis. Data extracted by one analyst from each source that included means and SDs at baseline, end of study, and changes from baseline to end of study for continuous variables were verified and corrected by a second analyst. Where SDs were not available, any provided estimate of variation was used to derive the SD where possible; a plot-digitizer program was used where data were presented in figures only. Data for dichotomous endpoints were extracted as the number of subjects with the event and corresponding sample size.
Random effects weighted least squares meta-regressions with inverse variance weighting were used to examine the association of changes in ALT, AST, CK-18, HbA1c, fasting insulin levels, ELF, alkaline phosphatase and GGT with biopsy outcomes. CK-18[M30] was measured in all studies except EMMINENCE where CK-18[M651 was reported. These associations were assessed at an individual cohort level (within treatment group), as well as based on the treatment effect. Percent change from baseline in liver injury makers and biomarkers was used as the predictor when examining the associations in the individual cohorts with outcomes while the treatment ratio, the ratio of active to placebo with respect to the relative changes from baseline, was used as the predictor when assessing the association with the treatment effect on outcomes. Standardized mean changes (mean/SD) or standardized mean treatment differences (mean difference/pooled SD) were used for continuous outcomes and Freeman-Tukey double arcsine transformed proportions or log odds ratios were used for dichotomous outcomes. Meta-regression results were computed using the metafor package available in R. P-values <0.05 were considered statistically significant.
From the meta-regression results, ranks for the association with responses and treatment effects for each histologic outcome (changes in ballooning, inflammation, steatosis, and fibrosis; NASH resolution without worsening of fibrosis, and fibrosis improvement without worsening of NAS) were assigned across seven biomarkers (AST, GGT, HbA1c, insulin, CK-18, ELF, and alkaline phosphatase) for both the slope and the mediator p-value (ranks 1-7, with 7 assigned to the biomarker with the greatest slope or lowest p-value). An average rank across all outcomes was then assigned to each biomarker. […]

The mark [4] stands for this setting: PIVENS, Vitamin E arm, follow-up 22 months.
The mark [5] stands for this setting: ENCORE-HF trial, Emricasan 5 mg.
Setting [6] is: ENCORE-HF trial, Emricasan 50 mg.
The mark [7] stands for this setting: MADRIGAL, 80 mg, follow-up 9 months.
The mark [8] stands for this setting: MADRIGAL trial, Resmetirom 80 mg.
Where [9] appears, read: ARREST, 400 mg, follow-up 12 months.
[10] abbreviates: ARREST, 600 mg, follow-up 12 months.
Where [11] appears, read: CENTAUR, 150 mg, follow-up 12 months.
Setting [12] is: GOLDEN, 80 mg, follow-up 12 months.
Where [13] appears, read: GOLDEN, 120 mg, follow-up 12 months.
[14] abbreviates: GOLDEN trial, Elafibranor 120 mg.
[15] abbreviates: GEORGESCU, 20 mg, follow-up 20 months.
Setting [16] is: GEORGESCU trial, Telmisartan 20 mg.
The mark [17] stands for this setting: LEUSCHNER, 23-28 mg/kg/day, follow-up 18 months.
Where [18] appears, read: LEUSCHNER trial, UDCA 23-28 mg/kg/day.
[19] abbreviates: GEORGESCU, 80 mg, follow-up 20 months.
Where [20] appears, read: GEORGESCU trial, Valsartan 80 mg.

Where two headings read alike, the source gives them in different places.

For the compound Vitamin E, in the test on patients with NASH [1] (setting [4]), the “% Change from Baseline ALT” value is −43.02%, the “% Change from Baseline AST” value was −36.10%, the “% Change from Baseline Alk Phos” value is listed as −12.08% and the “% Change from Baseline GGT” value is −25.00%. In the test on patients with NASH [1] (setting [4]), the “% Change from Baseline Insulin” value is 2.73%. In the test with patients with NASH [2] (PIVENS trial, Vitamin E), the “Change from Baseline, mean: Ballooning” value is −0.30; the “Change from Baseline, mean: Fibrosis” value was −0.30; the “Change from Baseline, mean: Inflammation” value is reported as −0.60; the “Change from Baseline, mean: Steatosis” value is reported as −0.70. In the test on patients with NASH [2] (PIVENS trial, Vitamin E), the “NASH Resolution” value is 30/84.
As to `CC(C)c1cc(Oc2c(Cl)cc(-n3nc(C#N)c(=O)[nH]c3=O)cc2Cl)n[nH]c1=O` [resmetiron, reference compound], the “treatment effect on the surrogate endpoint (weighted average of changes in AST, CK-18, HbA1c)” value in the test on patients with NASH [3] was “largest treatment effects”.
On to `C[C@H](NC(=O)C(=O)Nc1ccccc1C(C)(C)C)C(=O)N[C@@H](CC(=O)O)C(=O)COc1c(F)c(F)cc(F)c1F` [Emricasan], for which, in the test with patients with NASH [1] (ENCORE-HF, 5 mg), the “% Change from Baseline ALT” value is listed as −35.28%, the “% Change from Baseline AST” value is −18.47% and the “% Change from Baseline CK-18” value is given as −36.86%. For the same compound, in the test with patients with NASH [1] (ENCORE-HF, 50 mg), the “% Change from Baseline ALT” value was −45.17%, the “% Change from Baseline AST” value is recorded as −19.83% and the “% Change from Baseline CK-18” value is on record as −45.07%. Moreover, in the test on patients with NASH [2] (setting [5]), the “Change from Baseline, mean: Ballooning” value is reported as 0.04; the “Change from Baseline, mean: Fibrosis” value is 0.41; the “Change from Baseline, mean: Inflammation” value was −0.11; the “Change from Baseline, mean: Steatosis” value is given as −0.20. Besides, in the test with patients with NASH [2] (setting [5]), the “Fibrosis Improvement” value was 12/107 and the “NASH Resolution” value is reported as 4/107. For the same compound, in the test on patients with NASH [2] (setting [6]), the “Change from Baseline, mean: Ballooning” value is given as 0.13; the “Change from Baseline, mean: Fibrosis” value is given as 0.36; the “Change from Baseline, mean: Inflammation” value is 0.09; the “Change from Baseline, mean: Steatosis” value is given as −0.27. Also, in the test with patients with NASH [2] (setting [6]), the “Fibrosis Improvement” value was 13/106 and the “NASH Resolution” value was 7/106.
`CC(C)c1cc(Oc2c(Cl)cc(-n3nc(C#N)c(=O)[nH]c3=O)cc2Cl)n[nH]c1=O` [Resmetirom]: in the test with patients with NASH [1] (setting [7]), the “% Change from Baseline ALT” value is on record as −30.80%, the “% Change from Baseline AST” value is on record as −21.08%, the “% Change from Baseline Alk Phos” value is given as 7.85% and the “% Change from Baseline CK-18” value is listed as −35.15%. For the same compound, in the test with patients with NASH [1] (setting [7]), the “% Change from Baseline ELF” value is reported as −7.17%, the “% Change from Baseline GGT” value was −18.76% and the “% Change from Baseline HbA1c” value is reported as 0.63%. Besides, in the test on patients with NASH [2] (setting [8]), the “Fibrosis Improvement” value is given as 21/73 and the “NASH Resolution” value is 18/73.
As for `CCCCCCCCCCCCCCCCCCCC(=O)N[C@H]1CC[C@@]2(C)[C@@H](C1)C[C@@H](O)[C@@H]1[C@@H]2C[C@H](O)[C@]2(C)[C@@H]([C@H](C)CCC(=O)O)CC[C@@H]12` [Aramachol, reference compound], in the test with patients with NASH [1] (setting [9]), the “% Change from Baseline ALT” value is −18.06% and the “% Change from Baseline HbA1c” value was −0.62%. For the same compound, in the test with patients with NASH [1] (setting [10]), the “% Change from Baseline ALT” value is on record as −32.02% and the “% Change from Baseline HbA1c” value is reported as −1.79%. Moreover, in the test with patients with NASH [3], the “treatment effect on the surrogate endpoint (weighted average of changes in AST, CK-18, HbA1c)” value is recorded as “largest treatment effects”. Further, in the test with patients with NASH [2] (ARREST trial, Aramchol 400 mg), the “Fibrosis Improvement” value is reported as 17/80 and the “NASH Resolution” value is recorded as 6/80. In the test on patients with NASH [2] (ARREST trial, Aramchol 600 mg), the “Fibrosis Improvement” value is 23/78 and the “NASH Resolution” value was 13/78.
As to `CCCCOCCOc1ccc(-c2ccc3c(c2)/C=C(/C(=O)Nc2ccc([S@@+]([O-])Cc4cncn4CCC)cc2)CCCN3CC(C)C)cc1` [Cenicriviroc], in the test with patients with NASH [1] (setting [11]), the “% Change from Baseline ALT” value is given as 11.23%, the “% Change from Baseline AST” value is recorded as 11.67%, the “% Change from Baseline Alk Phos” value was 1.24% and the “% Change from Baseline CK-18” value is −12.34%. Also, in the test with patients with NASH [1] (setting [11]), the “% Change from Baseline GGT” value is given as 2.68%, the “% Change from Baseline HbA1c” value is −0.75% and the “% Change from Baseline Insulin” value is listed as 2.14%. In the test on patients with NASH [2] (CENTAUR trial, Cenicriviroc 150 mg), the “Fibrosis Improvement” value is given as 29/145.
Consider `CSc1ccc(C(=O)/C=C/c2cc(C)c(OC(C)(C)C(=O)O)c(C)c2)cc1` [Elafibranor], for which, in the test with patients with NASH [1] (setting [12]), the “% Change from Baseline ALT” value was −9.72%, the “% Change from Baseline AST” value is −16.87%, the “% Change from Baseline Alk Phos” value is reported as −25.87% and the “% Change from Baseline GGT” value was −34.54%. In addition, in the test with patients with NASH [1] (setting [13]), the “% Change from Baseline ALT” value was −19.75%, the “% Change from Baseline AST” value was −30.22%, the “% Change from Baseline Alk Phos” value is on record as −26.41% and the “% Change from Baseline GGT” value is −41.68%. Further, the “NASH Resolution” value in the test with patients with NASH [2] (GOLDEN trial, Elafibranor 80 mg) is on record as 12/93. Further, in the test on patients with NASH [2] (setting [14]), the “Change from Baseline, mean: Ballooning” value is listed as −0.07; the “Change from Baseline, mean: Fibrosis” value was −0.07; the “Change from Baseline, mean: Inflammation” value is on record as −0.32; the “Change from Baseline, mean: Steatosis” value is given as 0.02. In the test with patients with NASH [2] (setting [14]), the “NASH Resolution” value is 17/89.
Take `CCCc1nc2c(C)cc(-c3nc4ccccc4n3C)cc2n1Cc1ccc(-c2ccccc2C(=O)O)cc1` [Telmisartan]: in the test with patients with NASH [1] (setting [15]), the “% Change from Baseline ALT” value is on record as −30.29%, the “% Change from Baseline AST” value was −34.64% and the “% Change from Baseline GGT” value is −2.83%. Also, in the test on patients with NASH [2] (setting [16]), the “Change from Baseline, mean: Ballooning” value is on record as −0.58; the “Change from Baseline, mean: Fibrosis” value was −0.75; the “Change from Baseline, mean: Inflammation” value is given as −0.36; the “Change from Baseline, mean: Steatosis” value is −0.50.
In the case of `C[C@H](CCC(=O)O)[C@H]1CC[C@H]2[C@@H]3[C@@H](O)C[C@@H]4C[C@H](O)CC[C@]4(C)[C@H]3CC[C@]12C` [UDCA], in the test on patients with NASH [1] (setting [17]), the “% Change from Baseline ALT” value was −40.55%, the “% Change from Baseline AST” value is −27.95%, the “% Change from Baseline Alk Phos” value is −6.376% and the “% Change from Baseline GGT” value is on record as −59.94%. In the test on patients with NASH [2] (setting [18]), the “Change from Baseline, mean: Ballooning” value is −0.16; the “Change from Baseline, mean: Inflammation” value is reported as −0.51; the “Change from Baseline, mean: Steatosis” value was −0.55.
As for `CCCCC(=O)N(Cc1ccc(-c2ccccc2-c2nnn[nH]2)cc1)[C@H](C(=O)O)C(C)C` [Valsartan], in the test on patients with NASH [1] (setting [19]), the “% Change from Baseline ALT” value is reported as −23.22%, the “% Change from Baseline AST” value is listed as −18.82% and the “% Change from Baseline GGT” value is −20.60%. In the test on patients with NASH [2] (setting [20]), the “Change from Baseline, mean: Ballooning” value is −0.11; the “Change from Baseline, mean: Fibrosis” value is reported as −0.31; the “Change from Baseline, mean: Inflammation” value is 0.08; the “Change from Baseline, mean: Steatosis” value was −0.34.

These data come from patent publication US20240216344A1, “THIAZOLIDINEDIONE ANALOGS FOR THE TREATMENT OF NAFLD AND METABOLIC DISEASES” (Cirius Therapeutics, Inc., priority 2019, published 2024).
